This experiment has as its target T1, Recombinant full length human OGA enzyme (Homo sapiens, UniProt O60502).
T1 construct: Recombinant full length human OGA enzyme was purchased from Origene; purchased Origene
T1 sequence (O60502 1-916): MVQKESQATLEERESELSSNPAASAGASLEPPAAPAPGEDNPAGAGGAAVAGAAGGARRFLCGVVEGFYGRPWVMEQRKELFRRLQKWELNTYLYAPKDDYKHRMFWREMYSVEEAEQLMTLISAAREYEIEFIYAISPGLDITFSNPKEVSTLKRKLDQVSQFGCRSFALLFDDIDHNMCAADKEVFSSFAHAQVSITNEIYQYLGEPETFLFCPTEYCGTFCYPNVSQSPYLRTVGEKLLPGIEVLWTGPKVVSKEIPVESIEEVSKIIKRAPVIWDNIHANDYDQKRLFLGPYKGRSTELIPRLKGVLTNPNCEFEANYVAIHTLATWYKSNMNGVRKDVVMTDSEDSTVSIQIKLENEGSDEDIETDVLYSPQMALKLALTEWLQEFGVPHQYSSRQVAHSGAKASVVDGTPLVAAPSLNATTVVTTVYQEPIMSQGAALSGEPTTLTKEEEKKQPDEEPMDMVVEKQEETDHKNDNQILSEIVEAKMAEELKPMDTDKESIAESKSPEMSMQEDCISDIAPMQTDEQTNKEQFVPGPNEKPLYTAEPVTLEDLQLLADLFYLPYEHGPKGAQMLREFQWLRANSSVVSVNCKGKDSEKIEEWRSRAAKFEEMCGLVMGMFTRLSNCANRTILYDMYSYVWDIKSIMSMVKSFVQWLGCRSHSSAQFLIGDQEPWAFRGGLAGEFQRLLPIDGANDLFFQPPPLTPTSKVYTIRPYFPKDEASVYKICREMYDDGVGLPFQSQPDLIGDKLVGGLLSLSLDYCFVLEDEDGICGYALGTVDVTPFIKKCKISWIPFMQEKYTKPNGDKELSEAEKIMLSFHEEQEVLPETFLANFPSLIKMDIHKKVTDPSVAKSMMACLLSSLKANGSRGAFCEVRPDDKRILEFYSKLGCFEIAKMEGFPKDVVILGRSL
Put plainly: OGA Enzyme Inhibition Biochemical Assay. The conditions noted are these: 1 nM OGA, 100 μM 4-MUGlcNAc (Km), pH 6.4, 90 minutes at room temperature, 10-point dose-response from 20 μM. In short, it runs like this: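 Full-length human OGA at 1 nM with 100 μM 4-MUGlcNAc (Km) in McIlvaine buffer pH 6.4 plus 0.01% BSA, 90 min at room temperature, then glycine pH 10 quench. Fluorescence read at Ex 355/Em 460 nm. 10-point, 4-fold dose-response from 20 μM, 4-parameter variable-slope fit.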

pIC50: −log10 of the molar value. Bounds are passed on as bounds.

The term pIC50 denotes the IC50 on a negative log10 scale, so that one unit is a factor of ten. On to `CC(=O)Nc1ncc(CN2CCCC(Cc3cncc(C)n3)C2)s1` (centres unmarked) [Example 1-33, N-(5-((3-((6-methylpyrazin-2-yl)methyl)piperidin-1-yl)methyl)thiazol-2-yl)acetamide], for which the negative logarithm of the IC50 (pIC50) was 8.40.

In the case of `CC(=O)Nc1ncc(CN2CCCC(Cc3ncccc3C(F)(F)F)C2)s1` (centres unmarked) [Example 1-46, N-(5-((3-((3-(trifluoromethyl)pyridin-2-yl)methyl)piperidin-1-yl)methyl)thiazol-2-yl)acetamide], the pIC50 was 7.60.

As to `CC(=O)Nc1ncc([C@H](C)N2CCC[C@H](Cc3ncc(F)cn3)C2)s1` (single isomer, unassigned) [Example 2-11], the pIC50 was 9.00.

Regarding `CC(=O)Nc1ncc(CN2CC[C@@H](C)[C@@H](Cc3ncc(F)cn3)C2)s1` (single isomer, unassigned) [Example 2-40], the pIC50 was 7.57.

For `CC(=O)Nc1ncc(CN2CC[C@H](Cc3ncc(C)cn3)C2)s1` [Example 3-13, (R)-N-(5-((3-((5-methylpyrimidin-2-yl)methyl)pyrrolidin-1-yl)methyl)thiazol-2-yl)acetamide], the negative-log IC50 (pIC50) is 7.85.

For the compound `COc1ccc(CC2CCN(Cc3cnc(NC(C)=O)s3)C2)cc1` (centres unmarked) [Example 1-15, N-(5-((3-(4-methoxybenzyl)pyrrolidin-1-yl)methyl)thiazol-2-yl)acetamide], the pIC50 was 7.34.

Take `CC(=O)Nc1ncc(CN2C[C@H](Cc3noc(C)n3)C[C@@H]2C)s1` [Example 4-14, N-(5-(((2S,4S)-2-methyl-4-((5-methyl-1,2,4-oxadiazol-3-yl)methyl)pyrrolidin-1-yl)methyl)thiazol-2-yl)acetamide]: the negative logarithm of the IC50 (pIC50) is 8.42.

As for `COc1cccc(CC2CCN(Cc3cnc(NC(C)=O)s3)C2)c1` (centres unmarked) [Example 1-14, N-(5-((3-(3-methoxybenzyl)pyrrolidin-1-yl)methyl)thiazol-2-yl)acetamide], the negative-log IC50 (pIC50) is 7.66.

Consider `CC(=O)Nc1ncc(CN2CCCC(Cc3nc(C)nc4ccsc34)C2)s1` (centres unmarked) [Example 1-43, N-(5-((3-((2-methylthieno[3,2-d]pyrimidin-4-yl)methyl)piperidin-1-yl)methyl)thiazol-2-yl)acetamide], for which the pIC50 was 8.52.

With `CC(=O)Nc1ncc(CN2CCC(Cc3ccc(F)cn3)C2)s1` (centres unmarked) [Example 1-25, N-(5-((3-((5-fluoropyridin-2-yl)methyl)pyrrolidin-1-yl)methyl)thiazol-2-yl)acetamide], the pIC50 is 6.66.

As to `CC(=O)Nc1ncc([C@@H](C)N2CCC[C@H](Cc3ncc(F)cn3)C2)s1` (single isomer, unassigned) [Example 2-10], the negative-log IC50 (pIC50) was 7.54.

Consider `CC(=O)Nc1ncc(CN2C[C@@H](Cc3ncc(F)cn3)CC[C@@H]2C)s1` (single isomer, unassigned) [Example 2-26], for which the negative-log IC50 (pIC50) was 6.00.

Consider `CC(=O)Nc1nc(F)c(CN2C[C@@H](Cc3noc(C)n3)C[C@@H]2C)s1` (single isomer, unassigned) [Example 4-12 Peak 1], for which the pIC50 was more than 9.00.

For the compound `CC(=O)Nc1ncc(CN2C[C@@H](Cc3noc(C)n3)C[C@@H]2C)s1` [Example 4-13, N-(5-(((2S,4R)-2-methyl-4-((5-methyl-1,2,4-oxadiazol-3-yl)methyl)pyrrolidin-1-yl)methyl)thiazol-2-yl)acetamide], the pIC50 was 8.72.

As for `CC(=O)Nc1ncc(CN2CCCC(Cn3cc(F)cn3)C2)s1` (centres unmarked) [Example 4-1, N-(5-((3-((4-fluoro-1H-pyrazol-1-yl)methyl)piperidin-1-yl)methyl)thiazol-2-yl)acetamide], the pIC50 was 6.30.

In the case of `CC(=O)Nc1ncc(CN2CCCC(Cc3ccn(C)n3)C2)s1` (centres unmarked) [Example 1-47, N-(5-((3-((1-methyl-1H-pyrazol-3-yl)methyl)piperidin-1-yl)methyl)thiazol-2-yl)acetamide], the pIC50 is 7.80.

For the compound `COc1cc(CC2CCCN(Cc3cnc(NC(C)=O)s3)C2)ccn1` (centres unmarked) [Example 1-7, N-(5-((3-((2-methoxypyridin-4-yl)methyl)piperidin-1-yl)methyl)thiazol-2-yl)acetamide], the negative logarithm of the IC50 (pIC50) was 8.52.

With `CC(=O)Nc1ncc(CN2CC[C@H](Cc3nccc(C)n3)C2)s1` [Example 3-10, (R)-N-(5-((3-((4-methylpyrimidin-2-yl)methyl)pyrrolidin-1-yl)methyl)thiazol-2-yl)acetamide], the negative logarithm of the IC50 (pIC50) is 7.85.

For the compound `COc1ccnc(C[C@H]2CCN(Cc3cnc(NC(C)=O)s3)C2)n1` [Example 3-12, (R)-N-(5-((3-((4-methoxypyrimidin-2-yl)methyl)pyrrolidin-1-yl)methyl)thiazol-2-yl)acetamide], the negative logarithm of the IC50 (pIC50) is 8.05.

Regarding `CC(=O)Nc1ncc(CN2CCCC(Cn3cc(C(F)(F)F)cn3)C2)s1` (centres unmarked) [Example 4-3, N-(5-((3-((4-(trifluoromethyl)-1H-pyrazol-1-yl)methyl)piperidin-1-yl)methyl)thiazol-2-yl)acetamide], the negative logarithm of the IC50 (pIC50) is 6.02.

For `CC(=O)Nc1ncc(CN2CC[C@@H](Cc3ncc(F)cn3)C2)s1` (single isomer, unassigned) [Example 2-2], the pIC50 was 6.94.

As to `CC(=O)Nc1ncc(CN2CCCC(Cc3ccc(F)cn3)C2)s1` (centres unmarked) [Example 2-5, N-(5-((3-((5-fluoropyridin-2-yl)methyl)piperidin-1-yl)methyl)thiazol-2-yl)acetamide], the pIC50 was 7.64.

With `CC(=O)Nc1ncc(CN2C[C@H](Cc3ncc(F)cn3)C[C@@H]2C(F)(F)F)s1` (single isomer, unassigned) [Example 2-47], the pIC50 is 5.92.

Regarding `CC(=O)Nc1ncc(CN2C[C@@H](Cc3ncc(F)cn3)C[C@H]2C)s1` (single isomer, unassigned) [Example 2-19], the negative logarithm of the IC50 (pIC50) is 9.00.

Regarding `COc1ccc(CC2CCCN(Cc3cnc(NC(C)=O)s3)C2)nc1` (centres unmarked) [Example 1-10, N-(5-((3-((5-methoxypyridin-2-yl)methyl)piperidin-1-yl)methyl)thiazol-2-yl)acetamide], the pIC50 is 7.70.

Turning to `CCC(=O)Nc1nc(F)c(CN2CC[C@H](Cc3ncc(F)cn3)C2)s1` [Example 3-27, (R)-N-(4-fluoro-5-((3-((5-fluoropyrimidin-2-yl)methyl)pyrrolidin-1-yl)methyl)thiazol-2-yl)propionamide], the negative-log IC50 (pIC50) is 7.47.

For `CC(=O)Nc1ncc(CN2CCCC(Cc3ccccn3)C2)s1` (centres unmarked) [Example 1-2, N-(5-((3-(pyridin-2-ylmethyl)piperidin-1-yl)methyl)thiazol-2-yl)acetamide], the pIC50 was 8.40.

Consider `COc1cncc(CC2CCCN(Cc3cnc(NC(C)=O)s3)C2)c1` (centres unmarked) [Example 1-8, N-(5-((3-((5-methoxypyridin-3-yl)methyl)piperidin-1-yl)methyl)thiazol-2-yl)acetamide], for which the negative-log IC50 (pIC50) was 7.54.

Turning to `CC(=O)Nc1ncc(CN2CC[C@H](C)[C@@H](Cc3ncc(F)cn3)C2)s1` (single isomer, unassigned) [Example 2-38], the negative logarithm of the IC50 (pIC50) was 7.57.

Consider `CC(=O)Nc1ncc(CN2CCCC(Cc3cccc(C)n3)C2)s1` (centres unmarked) [Example 1-29, N-(5-((3-((6-methylpyridin-2-yl)methyl)piperidin-1-yl)methyl)thiazol-2-yl)acetamide], for which the pIC50 was 8.70.

Take `CC(=O)Nc1ncc(CN2CCCC(Cc3cccc(F)c3)C2)s1` (centres unmarked) [Example 1-5, N-(5-((3-(3-fluorobenzyl)piperidin-1-yl)methyl)thiazol-2-yl)acetamide]: the pIC50 was 7.21.

On to `COc1cc(C[C@H]2CCN(Cc3sc(NC(C)=O)nc3F)C2)ccn1` [Example 3-32, (S)—N-(4-fluoro-5-((3-((2-methoxypyridin-4-yl)methyl)pyrrolidin-1-yl)methyl)thiazol-2-yl)acetamide], for which the pIC50 was 8.05.

For `CC(=O)Nc1nc(F)c(CN2CCCC(Cc3noc(C)n3)C2)s1` (centres unmarked) [Example 4-18, N-(4-fluoro-5-((3-((5-methyl-1,2,4-oxadiazol-3-yl)methyl)piperidin-1-yl)methyl)thiazol-2-yl)acetamide], the pIC50 was 8.18.

On to `CC(=O)Nc1nc(F)c(CN2C[C@H](Cc3noc(C)n3)CC[C@@H]2C)s1` [Example 4-15, N-(4-fluoro-5-(((2S,5S)-2-methyl-5-((5-methyl-1,2,4-oxadiazol-3-yl)methyl)piperidin-1-yl)methyl)thiazol-2-yl)acetamide], for which the pIC50 is 8.80.

Regarding `CC(=O)Nc1ncc(CN2CC[C@H](Cc3ccc(F)c(F)c3)C2)s1` (stereo in doubt) [Example 4-26, N-(5-((3-(3,4-difluorobenzyl)pyrrolidin-1-yl)methyl)thiazol-2-yl)acetamide], the negative-log IC50 (pIC50) was 7.25.

For the origin of these results see patent US11459324B2, “O-glycoprotein-2-acetamido-2-deoxy-3-D-glycopyranosidase inhibitors” (BIOGEN MA INC., priority 2018, dated 2022).
